Reference: ChEMBL document CHEMBL5241075, “Advancement of chimeric hybrid drugs to cure malaria infection: An overview with special emphasis on endoperoxide pharmacophores” (Eur J Med Chem, 2021)
Values after ≈ are worked out from the molar mass of the structure shown.

How the values were obtained:
[1] = system: Plasmodium falciparum; test: Antiplasmodial activity against Plasmodium falciparum W2; type: functional, organism-based
[2] = system: Plasmodium falciparum; test: Antiplasmodial activity against Plasmodium falciparum D6; type: functional, organism-based
[3] = system: Plasmodium falciparum; test: Antiplasmodial activity against Plasmodium falciparum TM91C235; type: functional, organism-based
[4] = system: Plasmodium falciparum; test: Antiplasmodial activity against Plasmodium falciparum NF54; type: functional, organism-based
[5] = system: Plasmodium falciparum; test: Antiplasmodial activity against Plasmodium falciparum DD2; type: functional, organism-based
[6] = system: Plasmodium falciparum; test: Antiplasmodial activity against Plasmodium falciparum 3D7; type: functional, organism-based
[7] = system: Plasmodium falciparum; test: Antiplasmodial activity against Plasmodium falciparum D10; type: functional, organism-based; settings: Plasmodium falciparum, D10
[8] = system: Plasmodium falciparum; test: Resistance index, ratio of IC50 for antiplasmodial activity against Plasmodium falciparum K1 to IC50 for antiplasmodial activity against Plasmodium falciparum D10; type: functional
[9] = system: Plasmodium falciparum; test: Antiplasmodial activity against Plasmodium falciparum K1; type: functional, organism-based; settings: Plasmodium falciparum, K1
[10] = system: Plasmodium falciparum; test: Antimalarial activity against chloroquine resistant Plasmodium falciparum FcB1; type: functional, organism-based
[11] = system: Plasmodium falciparum; test: Antiplasmodial activity against Plasmodium falciparum Nigerian; type: functional, organism-based
[12] = system: Plasmodium falciparum; test: Antiplasmodial activity against Plasmodium falciparum FcM29; type: functional, organism-based
[13] = Therapeutic index, ratio of IC50 for antiproliferative activity against human HeLa cells to IC50 for antiplasmodial activity against Plasmodium falciparum K1; type: toxicity, cell-based; settings: HeLa cells, read-out: Ratio IC50
[14] = system: HeLa; test: Antiproliferative activity against human HeLa cells assessed as cell growth inhibition; type: functional, cell-based; settings: Homo sapiens, HeLa
[15] = system: Hemozoin; test: Inhibition of Beta-hematin in Plasmodium falciparum
[16] = system: Plasmodium falciparum; test: Antiplasmodial activity against chloroquine resistant Plasmodium falciparum; type: functional, organism-based
[17] = Stability of compound at pH 2 assessed as half life; type: physicochemical; settings: buffer
[18] = read-out: ED50 (the source's name)

CC(=O)O[C@H]1CC2C(C3CC[C@H]([C@H](C)CCC(=O)NCCNc4ccnc5cc(Cl)ccc45)[C@]31C)[C@H](OC(C)=O)C[C@@H]1CC3(CC[C@H]21)OOC1(CCCCC1)OO3 (stereo partly specified)
IC50 [1]: 4.47 nM
IC90 [1]: 10.5 nM
IC50 [2]: 6.53 nM
IC90 [2]: 10.6 nM
IC50 [3]: 8.54 nM
IC90 [3]: 17.2 nM

COc1ccc2nc3cc(Cl)ccc3c(NCCCN(C)CCO[C@H]3O[C@@H]4O[C@]5(C)CC[C@H]6[C@H](C)CC[C@@H]([C@H]3C)[C@@]46OO5)c2c1
IC50 [4]: 12.2 nM
IC50 [5]: 38.5 nM

C[C@H]1[C@@H](OCc2ccc(C(=O)O)cc2)O[C@@H]2O[C@@]3(C)CC[C@H]4[C@H](C)CC[C@@H]1[C@@]24OO3
EC50 [6, 18]: 4 ng/mL
IC50 [7]: 6 nM
Ratio IC50 [8]: 0.75
IC50 [9]: 6 nM
EC50 [9, 18]: 1.4 ng/mL (≈ 3.35 nM)

CCOP(=O)(CCCN(O)C(=O)CCC(=O)N(CCCCNC(=O)CC[C@H]1O[C@@H]2O[C@]3(C)CC[C@H]4[C@H](C)CC[C@@H]([C@H]1C)C24OO3)CCCNC(=O)CC[C@@H]1O[C@H]2O[C@@]3(C)CC[C@@H]4[C@@H](C)CC[C@H]([C@@H]1C)C24OO3)OCC
IC50 [10]: 650 nM

C[C@H]1[C@@H](OC(=O)CCC(=O)Nc2cccc3ncnc(Nc4ccc(Cl)c(Cl)c4)c23)O[C@@H]2O[C@]3(C)CC[C@H]4[C@H](C)CC[C@@H]1[C@@]24OO3
EC50 ([6]; read-out: EC50): 2.4 nM

CC(C)CN(NC(=O)C1CCC2(CC1)OOC1(OO2)C2CC3CC(C2)CC1C3)c1ccnc(C#N)n1 (stereo unspecified)
IC50 [1]: 9.8 nM

Clc1cc(NCCCN[C@@H]2C[C@@H]3CCC4(OO[C@@]5(c6ccccc6)CC(c6ccccc6)=C[C@H]5O4)[C@@H]3C2)c2ncccc2c1 (stereo partly specified)
IC50 [11]: 31 nM
IC50 [10]: 31 nM
IC50 [12]: 31 nM

COc1ccc2nc3cc(Cl)ccc3c(N3CCN(CCO[C@H]4O[C@@H]5O[C@]6(C)CC[C@H]7[C@H](C)CC[C@@H]([C@H]4C)[C@@]57OO6)C(C)C3)c2c1 (stereo partly specified)
IC50 [4]: 17 nM
IC50 [5]: 41.3 nM

CCOP(=O)(CCCN(O)C(=O)CC[C@H]1O[C@@H]2O[C@]3(C)CC[C@H]4[C@H](C)CC[C@@H]([C@H]1C)C24OO3)OCC
IC50 [10]: 28000 nM

C[C@@H]1CC[C@H]2[C@@H](C)C(c3ccco3)O[C@@H]3O[C@]4(C)CC[C@@H]1[C@]32OO4 (stereo partly specified)
IC50 [4]: 1.4 nM

Clc1cc(NCCNC2CCC3(CC2)OOC2CCC=CC2O3)c2ncccc2c1 (stereo unspecified)
IC50 [11]: 36 nM
IC50 [10]: 36 nM
IC50 [12]: 36 nM

COc1ccc2nc3cc(Cl)ccc3c(NCCN3CCN(CCO[C@H]4O[C@@H]5O[C@]6(C)CC[C@H]7[C@H](C)CC[C@@H]([C@H]4C)[C@@]57OO6)CC3)c2c1
IC50 [4]: 14.1 nM
IC50 [5]: 50.4 nM

C[C@@H]1CC[C@H]2[C@@H](C)C(OCc3ccc(C(=O)N(CCNc4ccnc5cc(Cl)ccc45)CC(=O)NC(C)(C)C)cc3)O[C@@H]3O[C@]4(C)CC[C@@H]1[C@]32OO4 (stereo partly specified)
IC50 [7]: 27 nM
selectivity ratio [13]: 26
Ratio IC50 [8]: 0.6
IC50 [14]: 496 nM
IC50 [9]: 19 nM
IC50 [15]: 0.44 equiv

COc1cc(NC(C)CCCNC2CCC3(CC2)OO[C@@]2(C)CCC(C(C)C)=C[C@H]2O3)c2ncccc2c1 (stereo partly specified)
IC50 [11]: 108 nM
IC50 [10]: 108 nM
IC50 [12]: 108 nM

C1CCC2(C1)OOC1(CCN(c3nc(N4CCOCC4)nc(N4CCOCC4)n3)CC1)OO2
IC50 [6]: 5.52 nM

COc1ccc2nc3cc(Cl)ccc3c(N3CCN(CCO[C@H]4O[C@@H]5O[C@]6(C)CC[C@H]7[C@H](C)CC[C@@H]([C@H]4C)[C@@]57OO6)CC3)c2c1
IC50 [4]: 267 nM
IC50 [5]: 430 nM

C[C@@H]1CC[C@@H]2[C@]34OO[C@@](C)(CC[C@@H]13)O[C@H]4OC(Nc1cccc(F)c1)[C@@]2(C)Br (stereo partly specified)
IC50 [16]: 0.16 ng/mL

C[C@@H]1C[C@@H]2CC3(CC[C@@H]2C2CC[C@@]4(C)C(CC[C@@H]4[C@H](C)CCCNCCNc4ccnc5cc(Cl)ccc45)C21)OOC1(CCCCC1)OO3 (stereo partly specified)
IC50 [1]: 22.9 nM
IC90 [1]: 30.3 nM
IC50 [2]: 33.5 nM
IC90 [2]: 103 nM
IC50 [3]: 30.2 nM
IC90 [3]: 160 nM

C[C@@H]1CC[C@@H]2[C@]34OO[C@@](C)(CC[C@@H]13)O[C@H]4OC(Nc1ncccn1)[C@@]2(C)Br (stereo partly specified)
IC50 [16]: 0.16 ng/mL

Clc1cc(NCCNC2CCC3(CC2)OO[C@@]2(c4ccccc4)CC(c4ccccc4)=C[C@H]2O3)c2ncccc2c1 (mixture of isomers)
IC50 [11]: 22 nM
IC50 [10]: 22 nM
IC50 [12]: 22 nM

CCOP(=O)(CCCN(O)C(=O)CCC(=O)N(CCCNC(=O)CC[C@H]1O[C@@H]2O[C@]3(C)CC[C@H]4[C@H](C)CC[C@@H]([C@H]1C)C24OO3)CCCNC(=O)CC[C@H]1O[C@@H]2O[C@]3(C)CC[C@H]4[C@H](C)CC[C@@H]([C@H]1C)C24OO3)OCC
IC50 [10]: 360 nM

C[C@@H]1CC[C@H]2[C@@H](C)C(OCc3ccc(C(=O)N(CCNc4ccnc5cc(Cl)ccc45)CC(=O)NC4CCCCC4)cc3)O[C@@H]3O[C@]4(C)CC[C@@H]1[C@]32OO4 (stereo partly specified)
IC50 [7]: 26 nM
selectivity ratio [13]: 12
Ratio IC50 [8]: 1
IC50 [14]: 286 nM
IC50 [9]: 23 nM
IC50 [15]: 0.45 equiv

CCOC1(C(F)(F)F)O[C@@H]2O[C@]3(C)CC[C@H]4[C@H](C)CC[C@@H]([C@H]1C)[C@@]24OO3 (stereo partly specified)
IC50 [16]: 3.3 nM
half-life [17]: 20.8 days

CC(CCC1OOC(C)(C)C(C)(CI)O1)NCCNc1ccnc2cc(Cl)ccc12 (stereo unspecified)
IC50 [11]: 188 nM
IC50 [10]: 188 nM
IC50 [12]: 188 nM

C1CN(c2nc(N3CCOCC3)nc(N3CCC4(CC3)OOC3(OO4)C4CC5CC(C4)CC3C5)n2)CCO1
IC50 [6]: 4.12 nM

CCCC1O[C@@H]2O[C@]3(C)CC[C@H]4[C@H](C)CC[C@@H]([C@H]1C)[C@@]24OO3 (stereo partly specified)
IC50 [1]: 0.16 ng/mL
IC50 [2]: 0.41 ng/mL

Clc1cc(NCCCNC2CCC3(CC2)OO[C@@]2(c4ccccc4)CC(c4ccccc4)=C[C@H]2O3)c2ncccc2c1 (mixture of isomers)
IC50 [11]: 41 nM
IC50 [10]: 41 nM
IC50 [12]: 41 nM

C[C@@H]1CC[C@H]2[C@@H](C)C(O)(C(F)(F)F)O[C@@H]3O[C@]4(C)CC[C@@H]1[C@]32OO4 (stereo partly specified)
IC50 [16]: 9.4 nM
half-life [17]: 31.7 days

C1CCC2(CC1)OOC1(CCN(c3nc(N4CCOCC4)nc(N4CCOCC4)n3)CC1)OO2
IC50 [6]: 5.68 nM

C1CCCC2(CC1)OOC1(CCN(c3nc(N4CCOCC4)nc(N4CCOCC4)n3)CC1)OO2
IC50 [6]: 5.71 nM

Clc1cc(NCCCN[C@H]2C[C@H]3CCC4(OO[C@@]5(c6ccccc6)CC(c6ccccc6)=C[C@H]5O4)[C@H]3C2)c2ncccc2c1 (stereo partly specified)
IC50 [11]: 63 nM
IC50 [10]: 63 nM
IC50 [12]: 63 nM

C[C@@H]1CC[C@H]2[C@@H](C)C(Oc3ccccc3)O[C@@H]3O[C@]4(C)CC[C@@H]1[C@]32OO4 (stereo partly specified)
IC50 [16]: 5.3 nM

COc1ccc2nc3cc(Cl)ccc3c(NCCN3CCNCC3)c2c1
IC50 [4]: 7.3 nM
IC50 [5]: 142 nM

C[C@H]1[C@@H](O)O[C@@H]2C[C@]3(C)CC[C@H]4[C@H](C)CC[C@@H]1[C@@]24OO3
EC50 ([6]; read-out: EC50): 2.4 nM
IC50 [7]: 4 nM
IC50 [4]: < 7 nM
Ratio IC50 [8]: 0.75
IC50 [9]: 3 nM

Clc1cc(NCCCCNC2CCC3(CC2)OO[C@@]2(c4ccccc4)CC(c4ccccc4)=C[C@H]2O3)c2ncccc2c1 (stereo partly specified)
IC50 [11]: 41 nM
IC50 [10]: 41 nM
IC50 [12]: 41 nM

CCC1O[C@@H]2O[C@]3(C)CC[C@H]4[C@H](C)CC[C@@H]([C@H]1C)[C@@]24OO3 (stereo partly specified)
IC50 [1]: 0.29 ng/mL
IC50 [2]: 1.09 ng/mL

C[C@@H]1CC[C@H]2[C@@H](C)C(OC(=O)CCC(=O)O)(C(F)(F)F)O[C@@H]3O[C@]4(C)CC[C@@H]1[C@]32OO4 (stereo partly specified)
IC50 [16]: 4.1 nM
half-life [17]: 1.25 days

COC1(C(F)(F)F)O[C@@H]2O[C@]3(C)CC[C@H]4[C@H](C)CC[C@@H]([C@H]1C)[C@@]24OO3 (stereo partly specified)
IC50 [16]: 0.8 nM
half-life [17]: 27.5 days

C[C@H]1[C@@H](OC(=O)CCC(=O)Oc2ccc(Nc3ncnc4ccccc34)cc2)O[C@@H]2O[C@]3(C)CC[C@H]4[C@H](C)CC[C@@H]1[C@@]24OO3
EC50 ([6]; read-out: EC50): 3.8 nM

COc1ccc2nc3cc(Cl)ccc3c(NCCNCCO[C@H]3O[C@@H]4O[C@]5(C)CC[C@H]6[C@H](C)CC[C@@H]([C@H]3C)[C@@]46OO5)c2c1
IC50 [4]: 2.6 nM
IC50 [5]: 35.3 nM
